The nature of data set [1]: Circular dichroism spectroscopy of helical structure (benign buffer and 50% TFE). The data set is classed as physicochemical. Particulars: 25° C.; for % helix 50% TFE / % helix Benign: relative to NAL in 50% TFE; for [θ]222 Benign: benign buffer (100 mM KCl, 50 mM PO4 pH 7.0); for [θ]222 50% TFE: benign buffer diluted 1:1 (v/v) with TFE; for % helix Benign: benign buffer. In outline:
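Peptide CD spectra at 25 °C, 190–250 nm, in benign buffer (50 mM KH2PO4/K2HPO4, 100 mM KCl, pH 7) and in the same buffer with 50% TFE. Samples were a 10-fold dilution of ~500 μM stock. Mean residue molar ellipticity at 222 nm gave relative α-helicity.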
A general note: Circular dichroism is widely used to follow secondary structure.

Another data set relates to human erythrocytes. Put plainly: Hemolytic activity (MHC), Protocol A, 12 hours. The protocol:
Measurement of Hemolytic Activity—Protocol A: Peptide samples were added to 1% human erythrocytes in phosphate buffered saline (0.08M NaCl; 0.043M Na2PO4; 0.011M KH2PO4) and reactions were incubated at 37° C. for 12 hours in microtiter plates. Peptide samples were diluted 2 fold in order to determine the concentration that produced no hemolysis. […] Hemoglobin release was determined spectrophotometrically at 562 nm. The hemolytic titer was the highest 2-fold dilution of the peptide that still caused release of hemoglobin from erythrocytes. The control for no release of hemoglobin was a sample of 1% erythrocytes without any peptide added. […] Peptide samples were diluted 2 fold in order to determine the concentration that produced no hemolysis. […] Hemoglobin release was determined spectrophotometrically at 570 nm. The hemolytic titer was the highest 2-fold dilution of the peptide that still caused release of hemoglobin from erythrocytes. The control for no release of hemoglobin was a sample of 1% erythrocytes without any peptide added.

In the next data set the test system is gram-negative bacteria. The data set can be described thus: MIC, microtiter dilution, Gram-negative bacteria (geometric mean of 6 strains). The data set is classed as cell-based. The conditions noted are these: for MIC (μg/ml) Gram-negative: geometric mean MIC, Table 9. In outline: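 Microtiter broth dilution in LB no-salt or Mueller-Hinton broth (brain heart infusion for P. aeruginosa clinical isolates, inoculum 1×10^6 CFU/ml); overnight 37° C. cultures diluted, plates incubated 37° C. 24 h. MIC is lowest peptide concentration inhibiting growth; value is geometric mean over 6 strains.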

In a further data set the test system is gram-positive bacteria. The essentials:
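Microtiter dilution in LB no-salt or Mueller-Hinton medium, with BHI for Pseudomonas aeruginosa clinical isolates (final inoculum 1×10^6 CFU/ml). Plates were incubated 24 hours at 37° C. MIC was the lowest peptide concentration inhibiting growth.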

Where [2] appears, read: minimal hemolytic concentration on human red blood cells (hRBC), Table 9.

Data on six molecules can be found in patent US8252737B2, “Antimicrobial peptides and methods of use” (priority 2004, dated 2012).

Values after ≈ are worked out from the molar mass of the structure shown. Where two headings read alike, the source gives them in different places. Square brackets hold non-standard residues; d marks the D form. Peptide text beside a SMILES is read from it.

As to `CC[C@H](C)[C@H](NC(=O)[C@H](C)NC(=O)[C@H](CCCCN)NC(=O)[C@H](CC(C)C)NC(=O)[C@H](C)NC(=O)[C@@H](NC(=O)[C@H](Cc1c[nH]cn1)NC(=O)[C@H](CC(C)C)NC(=O)[C@@H](NC(=O)[C@@H](NC(=O)[C@H](CCCCN)NC(=O)[C@@H](CO)NC(=O)[C@H](C)NC(=O)[C@H](CO)NC(=O)[C@H](CCCCN)NC(=O)[C@H](Cc1ccccc1)NC(=O)[C@@H](NC(=O)[C@H](CCCCN)NC(=O)[C@H](CC(C)C)NC(=O)[C@H](Cc1ccccc1)NC(=O)[C@H](CO)NC(=O)[C@H](CCCCN)NC(=O)[C@H](Cc1c[nH]c2ccccc12)NC(=O)[C@H](CCCCN)NC(C)=O)[C@@H](C)O)[C@@H](C)O)C(C)C)[C@@H](C)O)C(=O)N[C@@H](CO)C(=O)N[C@@H](CO)C(N)=O` [NSD] (Ac-KWKSFLKTFKSA[dS]KTVLHTALKAISS-NH2), in data set [1], the “% helix 50% TFE” value was found to be 77%, the “[θ]222 Benign” value was −1,700 deg · cm^2 · dmol^−1, the “[θ]222 50% TFE” value is −22,200 deg · cm^2 · dmol^−1 and the “% helix Benign” value turned out to be 6%. Besides, the “MHC” value in the data set on human erythrocytes was >250.0 µg/mL. Besides, the “MIC (μg/ml) Gram-negative” value against gram-negative bacteria was 6.3 µg/mL (≈ 2.14 µM). Moreover, in the data set with gram-positive bacteria, the “MIC (μg/ml) Gram-positive” value was determined as 16.0 µg/mL (≈ 5.42 µM).
As for `CC[C@H](C)[C@H](NC(=O)[C@H](C)NC(=O)[C@H](CCCCN)NC(=O)[C@H](CC(C)C)NC(=O)[C@H](C)NC(=O)[C@@H](NC(=O)[C@H](Cc1c[nH]cn1)NC(=O)[C@H](CC(C)C)NC(=O)[C@@H](NC(=O)[C@@H](NC(=O)[C@H](CCCCN)NC(=O)[C@H](NC(=O)[C@H](C)NC(=O)[C@H](CO)NC(=O)[C@H](CCCCN)NC(=O)[C@H](Cc1ccccc1)NC(=O)[C@@H](NC(=O)[C@H](CCCCN)NC(=O)[C@H](CC(C)C)NC(=O)[C@H](Cc1ccccc1)NC(=O)[C@H](CO)NC(=O)[C@H](CCCCN)NC(=O)[C@H](Cc1c[nH]c2ccccc12)NC(=O)[C@H](CCCCN)NC(C)=O)[C@@H](C)O)C(C)C)[C@@H](C)O)C(C)C)[C@@H](C)O)C(=O)N[C@@H](CO)C(=O)N[C@@H](CO)C(N)=O` [NVD], in data set [1], the “% helix 50% TFE” value was found to be 90%, the “[θ]222 Benign” value is listed as −2,800 deg · cm^2 · dmol^−1, the “[θ]222 50% TFE” value is −26,000 deg · cm^2 · dmol^−1 and the “% helix Benign” value was determined as 10%. Also, the “MHC” value with human erythrocytes (setting [2]) came out at 62.5 µg/mL. Further, the “MIC (μg/ml) Gram-negative” value in the data set with gram-negative bacteria amounted to 3.3 µg/mL (≈ 1.11 µM). The “MIC (μg/ml) Gram-positive” value against gram-positive bacteria (geometric mean MIC, Table 9) turned out to be 2.8 µg/mL (≈ 0.945 µM).
As for `CC[C@H](C)[C@H](NC(=O)[C@H](C)NC(=O)[C@H](CCCCN)NC(=O)[C@H](CC(C)C)NC(=O)[C@H](C)NC(=O)[C@@H](NC(=O)[C@H](Cc1c[nH]cn1)NC(=O)[C@H](CC(C)C)NC(=O)[C@@H](NC(=O)[C@@H](NC(=O)[C@H](CCCCN)NC(=O)[C@@H](NC(=O)[C@H](C)NC(=O)[C@@H](C)NC(=O)[C@H](CCCCN)NC(=O)[C@H](Cc1ccccc1)NC(=O)[C@@H](NC(=O)[C@H](CCCCN)NC(=O)[C@H](CC(C)C)NC(=O)[C@H](Cc1ccccc1)NC(=O)[C@H](CO)NC(=O)[C@H](CCCCN)NC(=O)[C@H](Cc1c[nH]c2ccccc12)NC(=O)[C@H](CCCCN)NC(C)=O)[C@@H](C)O)C(C)C)[C@@H](C)O)C(C)C)[C@@H](C)O)C(=O)N[C@@H](CO)C(=O)N[C@@H](CO)C(N)=O` [PAD] (Ac-KWKSFLKTFK[dA]AVKTVLHTALKAISS-NH2), in data set [1], the “% helix 50% TFE” value came out at 94%, the “[θ]222 Benign” value is on record as −3,050 deg · cm^2 · dmol^−1, the “[θ]222 50% TFE” value is −27,300 deg · cm^2 · dmol^−1 and the “% helix Benign” value is 11%. The “MHC” value with human erythrocytes turned out to be 15.6 µg/mL. In the data set with gram-negative bacteria, the “MIC (μg/ml) Gram-negative” value is 4.3 µg/mL (≈ 1.46 µM). The “MIC (μg/ml) Gram-positive” value in the data set on gram-positive bacteria was found to be 3.8 µg/mL (≈ 1.29 µM).
As to `CC[C@H](C)[C@H](NC(=O)[C@H](C)NC(=O)[C@H](CCCCN)NC(=O)[C@H](CC(C)C)NC(=O)[C@H](C)NC(=O)[C@@H](NC(=O)[C@H](Cc1c[nH]cn1)NC(=O)[C@H](CC(C)C)NC(=O)[C@@H](NC(=O)[C@@H](NC(=O)[C@H](CCCCN)NC(=O)[C@@H](NC(=O)[C@H](C)NC(=O)[C@@H](CCCCN)NC(=O)[C@H](CCCCN)NC(=O)[C@H](Cc1ccccc1)NC(=O)[C@@H](NC(=O)[C@H](CCCCN)NC(=O)[C@H](CC(C)C)NC(=O)[C@H](Cc1ccccc1)NC(=O)[C@H](CO)NC(=O)[C@H](CCCCN)NC(=O)[C@H](Cc1c[nH]c2ccccc12)NC(=O)[C@H](CCCCN)NC(C)=O)[C@@H](C)O)C(C)C)[C@@H](C)O)C(C)C)[C@@H](C)O)C(=O)N[C@@H](CO)C(=O)N[C@@H](CO)C(N)=O` [PKD] (Ac-KWKSFLKTFK[dK]AVKTVLHTALKAISS-NH2), in data set [1], the “% helix 50% TFE” value is listed as 96%, the “[θ]222 Benign” value was −2,500 deg · cm^2 · dmol^−1, the “[θ]222 50% TFE” value is given as −27,800 deg · cm^2 · dmol^−1 and the “% helix Benign” value came to 9%. For the same molecule, the “MHC” value in the data set with human erythrocytes came to 31.2 µg/mL. Further, the “MIC (μg/ml) Gram-negative” value with gram-negative bacteria stood at 2.6 µg/mL (≈ 0.866 µM). Moreover, the “fold improvement on the average MIC compared to V681” value in the data set with gram-negative bacteria (gram-negative bacteria, geometric mean comparison, Table 7) was determined as 3.4. Moreover, the “MIC (μg/ml) Gram-positive” value against gram-positive bacteria was 2.8 µg/mL (≈ 0.932 µM).
Consider `CC[C@H](C)[C@H](NC(=O)[C@H](C)NC(=O)[C@H](CCCCN)NC(=O)[C@H](CC(C)C)NC(=O)[C@H](C)NC(=O)[C@@H](NC(=O)[C@H](Cc1c[nH]cn1)NC(=O)[C@H](CC(C)C)NC(=O)[C@@H](NC(=O)[C@@H](NC(=O)[C@H](CCCCN)NC(=O)[C@@H](NC(=O)[C@H](C)NC(=O)[C@@H](CC(C)C)NC(=O)[C@H](CCCCN)NC(=O)[C@H](Cc1ccccc1)NC(=O)[C@@H](NC(=O)[C@H](CCCCN)NC(=O)[C@H](CC(C)C)NC(=O)[C@H](Cc1ccccc1)NC(=O)[C@H](CO)NC(=O)[C@H](CCCCN)NC(=O)[C@H](Cc1c[nH]c2ccccc12)NC(=O)[C@H](CCCCN)NC(C)=O)[C@@H](C)O)C(C)C)[C@@H](C)O)C(C)C)[C@@H](C)O)C(=O)N[C@@H](CO)C(=O)N[C@@H](CO)C(N)=O` [PLD] (Ac-KWKSFLKTFK[dL]AVKTVLHTALKAISS-NH2), for which, in data set [1], the “% helix 50% TFE” value stood at 90%, the “[θ]222 Benign” value is reported as −2,950 deg · cm^2 · dmol^−1, the “[θ]222 50% TFE” value is reported as −26,100 deg · cm^2 · dmol^−1 and the “% helix Benign” value was found to be 10%. In addition, in the data set with human erythrocytes, the “MHC” value worked out at 31.2 µg/mL. The “MIC (μg/ml) Gram-negative” value against gram-negative bacteria amounted to 5.0 µg/mL (≈ 1.67 µM). The “MIC (μg/ml) Gram-positive” value against gram-positive bacteria came to 4.7 µg/mL (≈ 1.57 µM).
In the case of `CC[C@H](C)[C@H](NC(=O)[C@H](C)NC(=O)[C@H](CCCCN)NC(=O)[C@H](CC(C)C)NC(=O)[C@H](C)NC(=O)[C@@H](NC(=O)[C@H](Cc1c[nH]cn1)NC(=O)[C@H](CC(C)C)NC(=O)[C@@H](NC(=O)[C@@H](NC(=O)[C@H](CCCCN)NC(=O)[C@@H](NC(=O)[C@H](C)NC(=O)[C@@H](CO)NC(=O)[C@H](CCCCN)NC(=O)[C@H](Cc1ccccc1)NC(=O)[C@@H](NC(=O)[C@H](CCCCN)NC(=O)[C@H](CC(C)C)NC(=O)[C@H](Cc1ccccc1)NC(=O)[C@H](CO)NC(=O)[C@H](CCCCN)NC(=O)[C@H](Cc1c[nH]c2ccccc12)NC(=O)[C@H](CCCCN)NC(C)=O)[C@@H](C)O)C(C)C)[C@@H](C)O)C(C)C)[C@@H](C)O)C(=O)N[C@@H](CO)C(=O)N[C@@H](CO)C(N)=O` [PSD], in data set [1], the “% helix 50% TFE” value was 90%, the “[θ]222 Benign” value is −2,800 deg · cm^2 · dmol^−1, the “[θ]222 50% TFE” value is −26,000 deg · cm^2 · dmol^−1 and the “% helix Benign” value is listed as 10%. For the same molecule, the “MHC” value in the data set on human erythrocytes (setting [2]) turned out to be 15.6 µg/mL. In the data set on gram-negative bacteria, the “MIC (μg/ml) Gram-negative” value was 2.9 µg/mL (≈ 0.979 µM). Also, the “geometric mean MIC against gram-positive bacteria” value in the data set with gram-positive bacteria (Table 8) was found to be 2.3 µg/mL. In addition, the “MIC (μg/ml) Gram-positive” value in the data set with gram-positive bacteria (geometric mean MIC, Table 9) was 2.3 µg/mL (≈ 0.777 µM). Besides, the “fold improvement in antimicrobial activity compared to V681” value in the data set on gram-positive bacteria (gram-positive bacteria, geometric mean MIC, Table 8) is reported as 2.7.
